Test results published in PubChem BioAssay AID248 (DTP/NCI, 2004).
Several values for one entry are separate records, joined by “and”; a condition that tells them apart may be missing. Equal entries are not always repeated. Toxic doses and inconclusive results are not listed. Cut-off read from the data, not from the text of the source: active = T/C of 150% or more; inactive = T/C below 125%.

Test system: L1210 leukemia ip in BDF1 mice, survival T/C
Test: NCI In Vivo Anticancer Drug Screen. Data for tumor model L1210 Leukemia (intraperitoneal) in B6D2F1 (BDF1) mice
Conditions: endpoint: mean survival time, higher = longer survival
Method in brief: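 Mice bearing the transplanted tumor received compound or vehicle. Survival of the treated group was divided by that of the vehicle-treated control group to give the ratio.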

[1] = dose: 100.0 mg/kg/injection, schedule: Q01DX001 (ip), vehicle: saline
[2] = dose: 200.0 mg/kg/injection, schedule: Q01DX001 (ip), vehicle: saline
[3] = dose: 400.0 mg/kg/injection, schedule: Q01DX001 (ip), vehicle: saline
[4] = dose: 100.0 mg/kg/injection, schedule: Q01DX009 (ip), vehicle: saline
[5] = dose: 100.0 mg/kg/injection, schedule: Q04DX003 (ip), vehicle: saline
[6] = dose: 200.0 mg/kg/injection, schedule: Q01DX009 (ip), vehicle: saline
[7] = dose: 200.0 mg/kg/injection, schedule: Q04DX003 (ip), vehicle: saline
[8] = dose: 400.0 mg/kg/injection, schedule: Q04DX003 (ip), vehicle: saline
[9] = dose: 100.0 mg/kg/injection, schedule: Q04DX003 (ip), vehicle: saline with Tween-80
[10] = dose: 200.0 mg/kg/injection, schedule: Q04DX003 (ip), vehicle: saline with Tween-80
[11] = dose: 400.0 mg/kg/injection, schedule: Q04DX003 (ip), vehicle: saline with Tween-80
[12] = dose: 100.0 mg/kg/injection, schedule: Q01DX009 (ip), vehicle: Klucel (hydroxypropylcellulose) (HPC)
[13] = dose: 100.0 mg/kg/injection, schedule: Q04DX003 (ip), vehicle: Klucel (hydroxypropylcellulose) (HPC)
[14] = dose: 200.0 mg/kg/injection, schedule: Q01DX009 (ip), vehicle: Klucel (hydroxypropylcellulose) (HPC)
[15] = dose: 200.0 mg/kg/injection, schedule: Q04DX003 (ip), vehicle: Klucel (hydroxypropylcellulose) (HPC)
[16] = dose: 400.0 mg/kg/injection, schedule: Q01DX009 (ip), vehicle: Klucel (hydroxypropylcellulose) (HPC)
[17] = dose: 400.0 mg/kg/injection, schedule: Q04DX003 (ip), vehicle: Klucel (hydroxypropylcellulose) (HPC)
[18] = dose: 25.0 mg/kg/injection, schedule: Q04DX003 (ip), vehicle: Klucel (hydroxypropylcellulose) (HPC)
[19] = dose: 50.0 mg/kg/injection, schedule: Q04DX003 (ip), vehicle: Klucel (hydroxypropylcellulose) (HPC)
[20] = dose: 25.0 mg/kg/injection, schedule: Q04DX003 (ip), vehicle: saline with Tween-80
[21] = dose: 100.0 mg/kg/injection, schedule: Q01DX001 (ip), vehicle: Klucel (hydroxypropylcellulose) (HPC)
[22] = dose: 200.0 mg/kg/injection, schedule: Q01DX001 (ip), vehicle: Klucel (hydroxypropylcellulose) (HPC)
[23] = dose: 400.0 mg/kg/injection, schedule: Q01DX001 (ip), vehicle: Klucel (hydroxypropylcellulose) (HPC)
[24] = dose: 12.5 mg/kg/injection, schedule: Q04DX002 (ip), vehicle: Klucel (hydroxypropylcellulose) (HPC)
[25] = dose: 25.0 mg/kg/injection, schedule: Q04DX002 (ip), vehicle: Klucel (hydroxypropylcellulose) (HPC)
[26] = dose: 50.0 mg/kg/injection, schedule: Q04DX002 (ip), vehicle: Klucel (hydroxypropylcellulose) (HPC)

Measured: T/C

CCCCCCCCN1N=C(C)CCC1=O
inactive: [1] 101 % of control | [2] 90 % of control | [3] 101 % of control

C[Si](C)(C)Cc1ccccc1
inactive: dose: 50.0 mg/kg/injection, schedule: Q01DX001 (ip), vehicle: carboxymethylcellulose (CMC) 93 % of control | dose: 200.0 mg/kg/injection, schedule: Q01DX001 (ip), vehicle: carboxymethylcellulose (CMC) 95 % of control

COP(=O)(CCBr)OC
inactive: [1] 103 % of control | [4] 101 % of control | [5] 104 % of control | [2] 102 % of control | [6] 103 % of control | [7] 104 % of control | [3] 108 % of control | dose: 400.0 mg/kg/injection, schedule: Q01DX009 (ip), vehicle: saline 98 % of control | [8] 106 % of control

CCN(CC)CCOCCN(CC)CC
inactive: dose: 75.0 mg/kg/injection, schedule: Q01DX001 (ip), vehicle: saline 98 % of control | dose: 150.0 mg/kg/injection, schedule: Q01DX001 (ip), vehicle: saline 102 % of control

O=C1C(Br)=CC(Br)(Br)C=C1Br
inactive: [9] 92 % of control | [10] 95 % of control | [11] 93 % of control

CC(C)C1=CC23CCC4C(C)(C(=O)O)CCCC4(C)C2CC1C1(Cl)C(Cl)=C(Cl)C(Cl)(Cl)C31Cl (stereo not given)
inactive: dose: 75.0 mg/kg/injection, schedule: Q01DX001 (ip), vehicle: other 89 % of control | dose: 150.0 mg/kg/injection, schedule: Q01DX001 (ip), vehicle: other 89 % of control

CCc1cccc(CC)c1N1C(=O)C=CC1=O
inactive: dose: 1.56 mg/kg/injection, schedule: Q01DX009 (ip), vehicle: other 102 % of control | dose: 3.13 mg/kg/injection, schedule: Q01DX009 (ip), vehicle: other 105 % of control | dose: 3.13 mg/kg/injection, schedule: Q04DX002 (ip), vehicle: other 87 % of control | dose: 6.25 mg/kg/injection, schedule: Q01DX009 (ip), vehicle: other 105 % of control | dose: 6.25 mg/kg/injection, schedule: Q04DX002 (ip), vehicle: other 93 % of control | dose: 12.5 mg/kg/injection, schedule: Q04DX002 (ip), vehicle: other 107 % of control

O=C(/C=C/C(=O)Oc1c(Cl)cc(Cl)cc1Cl)Oc1c(Cl)cc(Cl)cc1Cl
inactive: [12] 106 % of control | [13] 96 % of control | [9] 96 % of control | [14] 104 % of control | [15] 105 % of control | [10] 93 % of control | [16] 96 % of control | [17] 98 % of control | [11] 91 % of control

CSc1nc(C)c(C)[n+](C)n1
inactive: dose: 75.0 mg/kg/injection, schedule: Q01DX001 (ip), vehicle: saline with Tween-80 115 % of control | dose: 150.0 mg/kg/injection, schedule: Q01DX001 (ip), vehicle: saline with Tween-80 117 % of control

Cc1cc(C)c(O)c(N=O)c1.[Cu+2]
inactive: dose: 50.0 mg/kg/injection, schedule: Q01DX001 (ip), vehicle: saline 101 % of control | [1] 97 % of control | [2] 101 % of control | [3] 97 % of control

CCOC(=O)c1cnc(SC)nc1Nc1ccccc1C
inactive: [12] 96 % of control | [13] 97 % of control | [14] 93 % of control | [15] 98 % of control | [16] 91 % of control | [17] 98 % of control

CCOC(=O)NC(C)NC(=O)OCC
inactive: [1] 107 % of control | [2] 101 % of control | [3] 97 % of control

O=S(c1ccccc1)c1c(Cl)c(Cl)nc(Cl)c1Cl (stereo not given)
inactive: dose: 6.25 mg/kg/injection, schedule: Q01DX009 (ip), vehicle: Klucel (hydroxypropylcellulose) (HPC) 104 % of control | dose: 12.5 mg/kg/injection, schedule: Q01DX009 (ip), vehicle: Klucel (hydroxypropylcellulose) (HPC) 106 % of control | dose: 25.0 mg/kg/injection, schedule: Q01DX009 (ip), vehicle: Klucel (hydroxypropylcellulose) (HPC) 104 % of control | [13] 105 % of control | [15] 90 % of control

O=Cc1c(Cl)n(-c2ccccc2)c2c(C=O)cccc12
inactive: [18] 97 % of control | [19] 100 % of control | [13] 97 % of control

O=[N+]([O-])c1ccc(S(=O)CCCl)c([N+](=O)[O-])c1 (stereo not given)
inactive: dose: 6.25 mg/kg/injection, schedule: Q04DX003 (ip), vehicle: saline 96 % of control | dose: 12.5 mg/kg/injection, schedule: Q04DX003 (ip), vehicle: saline 97 % of control | [20] 100 % of control | dose: 25.0 mg/kg/injection, schedule: Q04DX003 (ip), vehicle: saline 97 % of control

C#CCOC1CCCCO1 (stereo not given)
inactive: [5] 104 % of control

O=C(O)C1OC1(c1cccc(Cl)c1)c1ccccc1Cl (stereo not given)
inactive: dose: 100.0 mg/kg/injection, schedule: Q01DX001 (ip), vehicle: olive oil, sesame oil, peanut oil 101 % of control | dose: 200.0 mg/kg/injection, schedule: Q01DX001 (ip), vehicle: olive oil, sesame oil, peanut oil 106 % of control

O=S(=O)(OC1CC2C=CC1C21CC1)c1ccc(Br)cc1 (stereo not given)
inactive: [21] 98 % of control | [22] 97 % of control | [23] 94 % of control

CC(C)C(=O)[O][Pb]([c]1ccccc1)([c]1ccccc1)[c]1ccccc1
inactive: [24] 101 % of control | [25] 97 % of control | [26] 97 % of control

c1ccc(-c2nnnn2C23CC4CC(CC(C4)C2)C3)cc1
inactive: [5] 98 % of control | [7] 100 % of control | [8] 98 % of control

CN(/N=C/C(O)C(O)C(O)CO)c1ccccc1 (stereo not given)
inactive: [4] 95 % of control | [9] 102 % of control and 98 % of control | [6] 90 % of control | [10] 93 % of control and 96 % of control | [11] 94 % of control and 96 % of control

O=c1ccoc(-c2cc(=O)cco2)c1
inactive: [20] 97 % of control | dose: 50.0 mg/kg/injection, schedule: Q04DX003 (ip), vehicle: saline with Tween-80 93 % of control | [9] 95 % of control

CC1(C)C2CC3C(CCC4C(=O)OC(=O)C43)C1C2 (stereo not given)
inactive: [21] 97 % of control | [22] 98 % of control | [23] 103 % of control

CCNc1nc(C(F)(F)F)nc2[nH]ncc12
inactive: dose: 100.0 mg/kg/injection, schedule: Q01DX001 (ip), vehicle: acetone 101 % of control | [5] 101 % of control | dose: 200.0 mg/kg/injection, schedule: Q01DX001 (ip), vehicle: acetone 90 % of control | [7] 95 % of control | dose: 400.0 mg/kg/injection, schedule: Q01DX001 (ip), vehicle: acetone 90 % of control | [8] 97 % of control

C#CCSP(=O)(O)O
inactive: dose: 25.0 mg/kg/injection, schedule: Q01DX009 (ip), vehicle: saline with Tween-80 103 % of control | dose: 50.0 mg/kg/injection, schedule: Q01DX009 (ip), vehicle: saline with Tween-80 103 % of control

C[P+]1(c2ccccc2)CCC(N)=C(C#N)C1 (stereo not given)
inactive: dose: 100.0 mg/kg/injection, schedule: Q04DX002 (ip), vehicle: saline with Tween-80 100 % of control

Ic1ccc(NC2=NCCN2)c2ccccc12
inactive: [18] 111 % of control | [19] 100 % of control | [13] 93 % of control and 91 % of control

NC(CSS(=O)(=O)O)=NCc1ccccc1
inactive: [24] 114 % of control | [25] 101 % of control | [26] 97 % of control

c1ccc2c(c1)ccc1cc3cc(NCCCCNc4ccc5nc6c(ccc7ccccc76)cc5c4)ccc3nc12
inactive: dose: 1.56 mg/kg/injection, schedule: Q01DX009 (ip), vehicle: saline with Tween-80 95 % of control | dose: 3.13 mg/kg/injection, schedule: Q01DX009 (ip), vehicle: saline with Tween-80 92 % of control | dose: 6.25 mg/kg/injection, schedule: Q01DX009 (ip), vehicle: saline with Tween-80 95 % of control and 111 % of control | dose: 12.5 mg/kg/injection, schedule: Q01DX009 (ip), vehicle: saline with Tween-80 87 % of control
